Test results as given in patent US5959130A, “Castor based benzoate esters” (Finetex, Inc., priority 1997, dated 1999).

Key:
[1] = sunscreen solubility: PARSOL 1789, Table IV B; format: physicochemical
From the text: (§1) These two sunscreens are difficult to dissolve and keep in solution for use in sunscreen formulations for optimal SPF (sun-protection factors). Higher solvency for a sunscreen ingredient is desirable as it allows higher concentrations of the sunscreen active ingredient in a formulation. This advantageously raises the SPF ratings for the formulation. The liquid organic sunscreens that are commonly used are octyl-methoxy cinnamate (OMC) and octyl salicylate (OS).
(§2) Solubility/Solvency Tables IVA and IVB show the solubility and concentrations of the sunscreen ingredient in the novel esters of the invention compared to their precursor raw materials (non-benzoate esters).

[2] = Hagman readings (particle size), titanium dioxide dispersion, Table VI A; format: physicochemical; conditions: for Hagman reading (particle size): TiO2 50%
Procedure: (§3) The novel benzoate esters of the invention were tested for pigment and dye dispersing efficacy. Color pastes were prepared by dispersing dry pigment into the oil phase while hand stirring and then passing each mixture through a three roll mill six times, collecting a 16 oz. sample after each pass. The samples collected were subjected to particle size measurements.

[3] = organoleptic evaluation of tactile characteristics on the forearm, Table VII; format: in vivo, individuals; conditions: rating, 1 = Worst 5 = Best
Procedure: The tactile characteristics of the novel benzoate esters of the invention were determined by applying the appropriate material, neat or as a dilution with another emollient ester, lanolin or […]. The properties were evaluated organoleptically after application to the interior surface of the forearm.

[4] = physical properties of benzoate esters compared to precursors, Table II; format: physicochemical; conditions: for VISCOSITY: Brookfield Viscometer, Spindle # 1, 10 rpm
From the text: Absence of odor is an important factor in consumer acceptance of cosmetic and toiletry products.

[5] = viscosity readings of titanium dioxide dispersions, Table VI B; format: physicochemical; conditions: for Viscosity reading of dispersion: Brookfield LVT-D @ 12 RPM, TiO2 50%
[6] = sunscreen solubility: Benzophenone-3, Table IV A; format: physicochemical
From the text: as §1, §2

[7] = Gardnor scale
[8] = Hagman readings (particle size), Red No. 21 dispersion, Table VI A; format: physicochemical; conditions: Red No. 21 35%
Procedure: as §3

[9] = Hagman readings (particle size), Red No. 6 Barium Lake dispersion, Table VI A; format: physicochemical; conditions: Red No. 6 Barium Lake 35%
Procedure: as §3

[10] = viscosity readings of Red No. 21 dispersions, Table VI B; format: physicochemical; conditions: for Viscosity reading of dispersion: Brookfield LVT-D @ 12 RPM, Red No. 21 35%
[11] = 23° C., 10 gms sunscreen in 100 gms mixture
[12] = 23° C., 15 gms sunscreen in 100 gms mixture
[13] = 30° C., 10 gms sunscreen in 100 gms mixture
[14] = 30° C., 15 gms sunscreen in 100 gms mixture

CCCCCCC(CCCCCCCCCCC(=O)OCC(CC)CCCC)OC(=O)c1ccccc1 (stereo not shown) [BOHS, benzoic acid ester of 2 ethyl hexyl 12-hydroxy stearate]
Sunscreen solubility (Parsol 1789) [1, 11]: +
Sunscreen solubility (Parsol 1789) [1, 12]: +
Sunscreen solubility (Parsol 1789) [1, 13]: +
Sunscreen solubility (Parsol 1789) [1, 14]: +
Hagman reading (particle size) ([2]; pass 1): ≤ 20 μm
Hagman reading (particle size) ([2]; pass 2): ≤ 14 μm
Hagman reading (particle size) ([2]; pass 3): ≤ 14 μm
Hagman reading (particle size) ([2]; pass 4): ≤ 10 μm
Hagman reading (particle size) ([2]; pass 5): ≤ 9 μm
Hagman reading (particle size) ([2]; pass 6): ≤ 8 μm
GREASINESS/OILINESS [3]: 4
OVERALL TACTILITY [3]: 3
SPREADABILITY [3]: 4
TACK [3]: 3
S.G. (specific gravity) ([4]; 25° C.): 0.928
TITER ([4]; 25° C.): clear
VISCOSITY [4]: 110 cps
viscosity of TiO2 dispersions (in words) [5]: much lower viscosity
Viscosity reading of dispersion ([5]; pass 1): 1170 cps
Viscosity reading of dispersion ([5]; pass 2): 1170 cps
Viscosity reading of dispersion ([5]; pass 3): 1326 cps
Viscosity reading of dispersion ([5]; pass 4): 1326 cps
Viscosity reading of dispersion ([5]; pass 5): 1326 cps
Viscosity reading of dispersion ([5]; pass 6): 1326 cps
Sunscreen solubility (Benzophenone-3) [6, 11]: +
Sunscreen solubility (Benzophenone-3) [6, 12]: +
Sunscreen solubility (Benzophenone-3) [6, 13]: +
Sunscreen solubility (Benzophenone-3) [6, 14]: +

CCCCCCCCCCCCCCCCOC(=O)CCCCCCCC=CCC(CCCCCC)OC(=O)c1ccccc1 (stereo not shown) [Example 10, Benzoate Ester of Cetyl Ricinoleate]
Color [7]: 4

CCCCCCC(CCCCCCCCCCC(=O)OCC(COC(=O)CCCCCCCCCCC(CCCCCC)OC(=O)c1ccccc1)OC(=O)CCCCCCCCCCC(CCCCCC)OC(=O)c1ccccc1)OC(=O)c1ccccc1 (stereo not shown) [Example 7, Castor Wax MP-80 Benzoate]
Color [7]: 3

CCCCCCC(CCCCCCCCCCC(=O)OCC(COC(=O)CCCCCCCCCCC(CCCCCC)OC(=O)c1ccccc1)OC(=O)CCCCCCCCCCC(CCCCCC)OC(=O)c1ccccc1)OC(=O)c1ccccc1 (stereo not shown) [Example 6, Castor Wax MP-80 Benzoate]
Color [7]: 3

CCCCCCCCCCCCCCCCOC(=O)CCCCCCCC=CCC(CCCCCC)OC(=O)c1ccccc1 (stereo not shown) [Example 11, Benzoate Ester of Cetyl Ricinoleate]
Color [7]: 4

CCCCCCCCCCCCCCCCOC(=O)CCCCCCCC=CCC(CCCCCC)OC(=O)c1ccccc1 (stereo not shown) [BCR, benzoic acid ester of cetyl-ricinoleate]
Sunscreen solubility (Parsol 1789) [1, 11]: +
Sunscreen solubility (Parsol 1789) [1, 12]: +
Sunscreen solubility (Parsol 1789) [1, 13]: +
Sunscreen solubility (Parsol 1789) [1, 14]: +
Hagman reading (particle size) ([2]; pass 1): ≤ 30 μm
Hagman reading (particle size) ([2]; pass 2): ≤ 30 μm
Hagman reading (particle size) ([2]; pass 3): ≤ 21 μm
Hagman reading (particle size) ([2]; pass 4): ≤ 18 μm
Hagman reading (particle size) ([2]; pass 5): ≤ 10 μm
Hagman reading (particle size) ([2]; pass 6): ≤ 10 μm
particle size reduction vs precursor CR (in words) ([2]; third pass and onwards): better reduction of particle size
GREASINESS/OILINESS [3]: 4
OVERALL TACTILITY [3]: 4
SPREADABILITY [3]: 3
TACK [3]: 3
Hagman reading (particle size) ([8]; pass 1): ≤ 34 μm
Hagman reading (particle size) ([8]; pass 2): ≤ 26 μm
Hagman reading (particle size) ([8]; pass 3): ≤ 20 μm
Hagman reading (particle size) ([8]; pass 4): ≤ 12 μm
Hagman reading (particle size) ([8]; pass 5): ≤ 8 μm
Hagman reading (particle size) ([8]; pass 6): ≤ 6 μm
Hagman reading (particle size) ([9]; pass 1): ≤ 53 μm
Hagman reading (particle size) ([9]; pass 2): ≤ 50 μm
Hagman reading (particle size) ([9]; pass 3): ≤ 46 μm
Hagman reading (particle size) ([9]; pass 4): ≤ 33 μm
Hagman reading (particle size) ([9]; pass 5): ≤ 30 μm
Hagman reading (particle size) ([9]; pass 6): ≤ 27 μm
S.G. (specific gravity) ([4]; 25° C.): 0.915
VISCOSITY [4]: 80 cps
viscosity of TiO2 dispersions (in words) [5]: much lower viscosity
Viscosity reading of dispersion ([5]; pass 1): 1794 cps
Viscosity reading of dispersion ([5]; pass 2): 1872 cps
Viscosity reading of dispersion ([5]; pass 3): 2028 cps
Viscosity reading of dispersion ([5]; pass 4): 2028 cps
Viscosity reading of dispersion ([5]; pass 5): 2028 cps
Viscosity reading of dispersion ([5]; pass 6): 1950 cps
Sunscreen solubility (Benzophenone-3) [6, 11]: +
Sunscreen solubility (Benzophenone-3) [6, 12]: +
Sunscreen solubility (Benzophenone-3) [6, 13]: +
Sunscreen solubility (Benzophenone-3) [6, 14]: +
viscosity of Red No. 21 dispersion (in words) [10]: excellent low viscosity dispersion
Viscosity reading of dispersion ([10]; pass 1): 4602 cps
Viscosity reading of dispersion ([10]; pass 2): 4368 cps
Viscosity reading of dispersion ([10]; pass 3): 4212 cps
Viscosity reading of dispersion ([10]; pass 4): 4134 cps
Viscosity reading of dispersion ([10]; pass 5): 4290 cps
Viscosity reading of dispersion ([10]; pass 6): 4368 cps
